# According to US7084136B2, “Drug composition antagonistic to both PGD2/TXA2 receptors” (Shionogi & Co., Ltd., priority 2000, dated 2006):
# Tests used:
# [1] = biological target: T1, PGD2 receptor (Homo sapiens, UniProt Q13258); assay: Binding activity to PGD2 receptor ([3H]PGD2, human platelet membrane fraction); details: human platelet membrane fraction; read-out: Binding activity to PGD2 receptor in human platelet membrane fraction IC50
# T1 construct: A suspension adjusted to contain the platelets at a final concentration of 5×10^8/ml was warmed at 37° C; endogenous in cells; host or cells: washed human platelets from a healthy volunteer
# T1 sequence (Q13258 1-359): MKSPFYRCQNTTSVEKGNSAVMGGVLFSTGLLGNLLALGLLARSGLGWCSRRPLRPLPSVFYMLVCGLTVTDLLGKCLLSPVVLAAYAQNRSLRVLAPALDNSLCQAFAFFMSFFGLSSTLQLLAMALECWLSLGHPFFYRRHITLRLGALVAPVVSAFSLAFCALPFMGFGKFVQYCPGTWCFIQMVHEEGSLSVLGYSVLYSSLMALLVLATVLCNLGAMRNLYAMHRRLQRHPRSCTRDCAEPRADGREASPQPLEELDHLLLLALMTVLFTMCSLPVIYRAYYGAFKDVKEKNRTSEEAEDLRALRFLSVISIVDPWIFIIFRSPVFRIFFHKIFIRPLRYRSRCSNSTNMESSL
# Description: Experiment 1 Binding Activity to PGD2 Receptor
# (§1) (1) Preparation of Human Platelet Membrane Fraction
# Blood was collected using a plastic syringe containing 3.8% sodium citrate from the vein of healthy volunteers (adult male and female), then put into a plastic test tube and mixed by slow-reversion. The sample was then centrifuged at 1800 rpm, for 10 min at room temperature, and the supernatant containing PRP (platelet-rich plasma) was collected. The PRP was re-centrifuged at 2300 rpm, for 22 min at room temperature to obtain platelets. The platelets were homogenized using a homogenizer (Ultra-Turrax) followed by centrifugation 3 times at 20,000 rpm, 10 min at 4° C. to obtain a platelet membrane fraction. After protein determination, the membrane fraction was adjusted to 2 mg/ml and preserved in a refrigerator at −80° C. until using for the binding test.
# (2) Binding to PGD2 Receptor
# To a binding-reaction solution (50 mM Tris/HCl, pH 7.4, 5 mM MgCl2) (0.2 ml) were added the human platelet membrane fraction (0.1 mg) and 5 nM [^3H]PGD2 (115 Ci/mmol), and the mixture was reacted at 4° C. for 90 min. After the reaction, the mixture was filtered through a glass fiber filter paper and washed several times with cooled physiological saline, then the radioactivity retained on the filter paper was measured. The specific-binding ratio was calculated by subtracting the non-specific binding ratio which is the radioactivity similarly measured in the presence of 10 μM PGD2 from the total binding. The inhibitory activity of each compound was expressed as the concentration required for 50% inhibition (IC50), which was determined by depicting a substitution curve by plotting the binding ratio (%) in the presence of each compound, where the binding ratio in the absence of a test compound is 100%.
# [2] = biological target: T2, TXA2 receptor (Homo sapiens, UniProt P21731); assay: Binding activity to TXA2 receptor ([3H](+)-S-145 sodium salt, human platelet membrane fraction); details: human platelet membrane fraction; 2 nM [3H](+)-S-145 sodium salt; read-out: Binding activity to TXA2 receptor in human platelet membrane fraction IC50
# T2 construct: The human platelet membrane fraction was prepared in accordance with Experiment 1 (1); from tissue; host or cells: human platelet membrane fraction from blood of healthy volunteers
# T2 sequence (P21731 1-343): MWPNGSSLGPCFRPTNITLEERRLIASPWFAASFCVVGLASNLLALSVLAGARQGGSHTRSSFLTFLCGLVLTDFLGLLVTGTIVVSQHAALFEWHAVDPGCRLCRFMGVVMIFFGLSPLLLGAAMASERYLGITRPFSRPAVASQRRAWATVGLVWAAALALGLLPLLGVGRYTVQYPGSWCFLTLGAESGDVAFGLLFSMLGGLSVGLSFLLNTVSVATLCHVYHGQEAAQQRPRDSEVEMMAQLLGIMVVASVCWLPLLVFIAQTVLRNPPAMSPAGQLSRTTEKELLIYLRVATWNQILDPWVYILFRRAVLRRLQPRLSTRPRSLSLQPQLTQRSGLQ
# Description: Experiment 2 Binding Activity to TXA2 Receptor
# as §1
# The human platelet membrane fraction was prepared in accordance with Experiment 1 (1).
# (2) Binding to TXA2 Receptor
# To a binding-reaction solution (50 mM Tris/HCl, pH 7.4, 10 mM MgCl2) (0.2 ml) were added the human platelet membrane fraction (0.05 mg) and 2 nM Sodium [^3H](+)-(5Z)-7-[3-endo-[(phenylsulfonyl)amino]bicyclo[2.2.1]hept-2-exo-yl]heptenoate (Japanese Patent Publication (Kokoku) No.79060/1993, hereinafter referred to as (+)-S-145 sodium salt) (26.4 Ci/mmol), and the mixture was reacted at room temperature for 90 min. After the reaction, the resultant mixture was filtered through a glass fiber filter paper and washed several times with cooled physiological saline, then the radioactivity retained on the filter paper was measured. The specific-binding ratio was calculated by subtracting the non-specific binding ratio (the radio activity similarly determined in the presence of 10 μM (+)-S-145 sodium salt) from the total binding. The inhibitory activity of each compound was expressed as the concentration required for 50% inhibition (IC50), which was determined by depicting a substitution curve by plotting the binding ratio (%) in the presence of each compound, where the binding ratio in the absence of a test compound is 100%.
# [3] = biological target: T1, PGD2 receptor; assay: Antagonistic activity against PGD2 receptor using human platelet (inhibition of PGD2-induced cAMP increase); assay type: cell-based; details: human platelet; 0.1 μM PGD2; read-out: Inhibitory activity for the increase of cAMP caused by PGD2 in human platelet IC50
# Description: Experiment 3 Evaluation of Antagonistic Activity Against PGD2 Receptor
# Receptor Using Human Platelet
# Peripheral blood was collected from a healthy volunteer using a syringe in which 1/9 volume of a citric acid/dextrose solution was previously added. The sample was subjected to centrifugation at 1200 rpm for 10 min to obtain the supernatant (PRP: platelet rich plasma). The resultant PRP was washed 3 times with a washing buffer and the number of platelets was counted with a micro cell counter. A suspension adjusted to contain the platelets at a final concentration of 5×10^8/ml was warmed at 37° C., then subjected to the pre-treatment with 3-isobutyl-1-methylxanthine (0.5 mM) for 5 min. To the suspension was added a test compound diluted at various concentration, and 10 minutes later, 0.1 μM PGD2 was added to induce the reaction 2 minutes later, hydrochloric acid was added to terminate the reaction. The platelet was destroyed with an ultrasonic homogenizer. After centrifugation, the cAMP in the supernatant was determined by radioimmunoassay. PGD2 receptor antagonism of a drug was evaluated as follows: the inhibition rate regarding cAMP increased by the addition of PGD2 was determined at each concentration, and the concentration of the drug required for 50% inhibition (IC50) was calculated.
# [4] = Change of plasma concentration of drug in rat (half life of the disappearance after i.v. administration); assay type: in vivo; details: Jcl-SD male rats, 0.5 to 2 mg/kg intravenously, unchanged compound
# Description: Experiment 4 Change of Plasma Concentration of Drug in Rat
# Compound (0.5 to 2 mg/kg) was administered intravenously to Jcl-SD male rats.
Structure (SMILES),IC50 [1] [nM],IC50 [2] [nM],IC50 [3] [nM],half life of the disappearance [4] [min]
O=C(O)CCC/C=C\C[C@H]1[C@@H]2CC[C@@H](C2)[C@@H]1NC(=O)c1ccc(S(=O)(=O)n2cccc2)s1 [I-1],4.3,3,1.3,9.4
O=C(O)COCCCC[C@H]1[C@@H]2CC[C@@H](C2)[C@@H]1NC(=O)c1ccc(S(=O)(=O)n2cccc2)s1 [I-7M-1a],–,–,–,26.3
Cc1ccc(Cc2ccc(C(=O)N[C@H]3[C@H]4CC[C@H](C4)[C@@H]3C/C=C\CCCC(=O)O)s2)s1 [I-129],11,52,22,–
Cc1cccc(Cc2ccc(C(=O)N[C@H]3[C@H]4CC[C@H](C4)[C@@H]3C/C=C\CCCC(=O)O)s2)c1 [I-131],44,19,41,–
Cc1cccc(SCc2ccc(C(=O)N[C@H]3[C@H]4CC[C@H](C4)[C@@H]3C/C=C\CCCC(=O)O)s2)c1 [I-132],32,12,43,–
O=C(O)CCC/C=C\C[C@H]1[C@@H]2CC[C@@H](C2)[C@@H]1NC(=O)c1ccc(Cc2cc3ccccc3o2)s1 [I-136],23,16,15,–
O=C(O)CCC/C=C\C[C@H]1[C@@H]2CC[C@@H](C2)[C@@H]1NC(=O)c1csc2c(Cc3ccccc3)cccc12 [I-143],2.7,28,1.9,4.7
O=C(O)CCC/C=C\C[C@H]1[C@@H]2CC[C@@H](C2)[C@@H]1NC(=O)c1ccc(Cc2ccc(OCc3ccccc3)c(O)c2)s1 [I-146],44,19,73,–
O=C(O)CCC/C=C\C[C@H]1[C@@H]2CC[C@@H](C2)[C@@H]1NC(=O)c1cc2ccc(Cc3ccccc3)cc2s1 [I-160],28,20,85,–
O=C(O)CCC/C=C\C[C@H]1[C@@H]2CC[C@@H](C2)[C@@H]1NC(=O)c1csc2c(Cc3cccs3)cccc12 [I-168],0.46,34,29,–
O=C(O)CCC/C=C\C[C@H]1[C@@H]2CC[C@@H](C2)[C@@H]1NC(=O)c1csc2c(Cc3ccsc3)cccc12 [I-169],0.61,32,26,–
O=C(O)CCC/C=C\C[C@H]1[C@@H]2CC[C@@H](C2)[C@@H]1NC(=O)c1csc2c(Cc3ccoc3)cccc12 [I-170],0.92,27,17,–
O=C(O)CCC/C=C\C[C@H]1[C@@H]2CC[C@@H](C2)[C@@H]1NC(=O)c1ccc(Cc2csc3ccccc23)s1 [I-182],61,28,11,–
CC1(C)[C@H]2C[C@H](C/C=C\CCCC(=O)O)[C@@H](NC(=O)c3ccc(S(=O)(=O)n4cccc4)s3)[C@@H]1C2 [II-1],2,12,11,–
CC1(C)[C@H]2C[C@H](C/C=C\CCCC(=O)O)[C@@H](NC(=O)c3ccc(S(=O)(=O)c4ccccc4)s3)[C@@H]1C2 [II-37],26,4.3,35,–
CC1(C)[C@H]2C[C@H](C/C=C\CCCC(=O)O)[C@@H](NC(=O)c3ccc(S(=O)(=O)c4cccs4)s3)[C@@H]1C2 [II-47],0.96,3.6,4,–
Cc1cccn1S(=O)(=O)c1ccc(C(=O)N[C@@H]2[C@@H](C/C=C\CCCC(=O)O)C[C@H]3C[C@@H]2C3(C)C)s1 [II-55],1.5,4.4,3.9,–
CC1(C)[C@H]2C[C@H](C/C=C\CCCC(=O)O)[C@@H](NC(=O)c3ccc(Sc4cccs4)s3)[C@@H]1C2 [II-59],0.1,14,24,11.0
Cc1cc(S(=O)(=O)c2ccc(C(=O)N[C@@H]3[C@@H](C/C=C\CCCC(=O)O)C[C@H]4C[C@@H]3C4(C)C)s2)cs1 [II-101],72,4,45,–
CC1(C)[C@H]2C[C@H](C/C=C\CCCC(=O)O)[C@@H](NC(=O)c3ccc(S(=O)(=O)c4cccc(O)c4)s3)[C@@H]1C2 [II-117],22,2.6,24,–
COc1ccccc1Cc1ccc(C(=O)N[C@@H]2[C@@H](C/C=C\CCCC(=O)O)C[C@H]3C[C@@H]2C3(C)C)s1 [II-126],4.6,45,4,–
CC1(C)[C@H]2C[C@H](C/C=C\CCCC(=O)O)[C@@H](NC(=O)c3ccc(Cc4cccc(-c5ccccc5)c4)s3)[C@@H]1C2 [II-138],32,72,25,–
